Results from patent US9642829B2, “Antifungal compound and uses thereof” (The University of Hong Kong, priority 2012, dated 2017).

Experiments:
C. albicans = assay: Antifungal susceptibility (MIC/MFC), CLSI criteria, 96-well double dilution; assay type: cell-based, Candida albicans; details: for Susceptibility (MIC90): 0.5 McFarland inoculum (10^6 cells/ml)
Experimental: (§1) Antifungal activity of the small molecules was evaluated using USA standards, Clinical and Laboratory Standards Institute (CLSI) criteria. In brief, inocula from 24 h Candida cultures on Sabourauds's dextore agar were standardized to a turbidity equivalent of 0.5 McFarland standards at 520 nm with a spectrophotometer. The suspensions were further diluted in Rosewell Park Memorial Institute (RPMI) 1640 medium (Life technologies, New York, USA) to yield an inoculum concentration of approximately 0.5 1×10^3 to 2.5 1×10^3 cells/ml. Minimum inhibitory concentration (MIC) and minimum fungicidal concentration (MFC) assay was performed in 96-well plates (Iwaki, Tokyo, Japan) and each of the Candida species was exposed to a double dilution of SM21. Amphotericin B was used as a positive control. All the experiments were preformed three occasions with duplicates for all isolates. The plates were incubated at 35° C. for 48 h to evaluate MIC. In the case of Cryotococcus neoformans, reading were taken after 72 h. Aforementioned assay was performed for C. albicans ATCC 90028, C. albicans SC5314 and 10 C. albicans clinical isolates. Moreover, MIC/MFC determination was carried out for other fungal species such as C. glabrata, C. krusei, C. tropicalis, C. parapsilosis, C. neoformans, Aspergillus fumigates and Penicillium marneffei. […] Next using dose-dependent assay we tested that MIC/MFC of SM21 from 10^3 cells/ml to 10^7 cells/ml of C. albicans (Table 2). Each of the foregoing experiment was repeated on three different occasions.

C. neoformans = assay: Antifungal susceptibility (MIC/MFC), CLSI criteria, reading after 72 h; assay type: cell-based, Cryptococcus neoformans; details: 0.5 McFarland inoculum (10^6 cells/ml)
Experimental: (§2) Antifungal activity of the small molecules was evaluated using USA standards, Clinical and Laboratory Standards Institute (CLSI) criteria. In brief, inocula from 24 h Candida cultures on Sabourauds's dextore agar were standardized to a turbidity equivalent of 0.5 McFarland standards at 520 nm with a spectrophotometer. The suspensions were further diluted in Rosewell Park Memorial Institute (RPMI) 1640 medium (Life technologies, New York, USA) to yield an inoculum concentration of approximately 0.5 1×10^3 to 2.5 1×10^3 cells/ml. Minimum inhibitory concentration (MIC) and minimum fungicidal concentration (MFC) assay was performed in 96-well plates (Iwaki, Tokyo, Japan) and each of the Candida species was exposed to a double dilution of SM21. Amphotericin B was used as a positive control. All the experiments were preformed three occasions with duplicates for all isolates. The plates were incubated at 35° C. for 48 h to evaluate MIC. In the case of Cryotococcus neoformans, reading were taken after 72 h. Aforementioned assay was performed for C. albicans ATCC 90028, C. albicans SC5314 and 10 C. albicans clinical isolates. Moreover, MIC/MFC determination was carried out for other fungal species such as C. glabrata, C. krusei, C. tropicalis, C. parapsilosis, C. neoformans, Aspergillus fumigates and Penicillium marneffei. […]

Penicillium marneffei = assay: Antifungal susceptibility (MIC/MFC), CLSI criteria; assay type: cell-based; details: 0.5 McFarland inoculum (10^6 cells/ml)
Experimental: as §1

Aspergillus fumigatus = assay: Antifungal susceptibility (MIC/MFC), CLSI criteria; assay type: cell-based; details: 0.5 McFarland inoculum (10^6 cells/ml)
Experimental: as §1

[1] = tested on: C. albicans drug resistant isolate; assay: Susceptibility of multidrug resistant clinical isolates, CLSI M27A broth microdilution; assay type: cell-based, Candida albicans; details: C. albicans T1675; resistant to Fluconazole, Itraconazole
Excerpt: Oral Biosciences laboratory has one of the largest collections of fungal isolates, particular that of Candida species in the world. In our previous studies, we have found multidrug resistant clinical isolates of Candida species against existing antifungals. In particular, some of these strains are resistant to best antifungal agents to date such as caspofungin, amphotericin B and fluconazole. Therefore, we performed antifungal susceptibility testing for SM21 against these drug resistant Candida isolates suing CLSI M27A brothmicrodultion assay and CLSI M44-A disc diffusion assay.

C. albicans biofilms = assay: Mono species Candida biofilm MIC, XTT assay; assay type: cell-based, Candida albicans
Experimental: (§3) For instance, we have previously shown the resistance of Candida biofilms against amphotericin and caspofungin. Therefore, next using standard biofilm assays we have established in our laboratory, we examined the effect of SM21 against Candida biofilms. In brief, Candida cells were grown in SDA medium at 37° C. for 18 h. Then a loopful of the yeast was inoculated into the yeast nitrogen base (YNB; Difco) medium supplemented with 50 mM glucose in a rotary shaker at 75 rpm. After overnight broth culture, the yeasts were harvested in the late exponential growth phase and washed twice with 20 ml of phosphate buffer saline (PBS; pH 7.2. 0.1 M) prior to use in the biofilm studies. Candida biofilms were developed according to a previously published protocol. In brief, washed yeast cells were resuspended in YNB supplemented with 100 mM glucose and adjusted to an optical density of 0.38 at 520 nm (1×10^7 cells/ml). The standard cell suspension was used immediately to develop biofilms on commercially available presterilized, polystyrene, 96-well plate (IWAKI, Tokyo, Japan). At first, 100 μl of standardized cell suspension (1×10^7 cells/ml) was pipetted into each well of a microtiter plate and incubated for 1.5 h at 37° C. in a shaker at 75 rpm to permit yeast adherence to the well surface (adherence phase). For controls, a well of each microtiter plate was handled in an identical fashion except that no Candida suspension was added. Following the adhesion phase, the cell suspensions were aspirated, and each well washed with 100 μl of PBS to remove loosely adherent cells. 200 μl of YNB with 100 mM glucose were then pipetted into each of the washed wells and the plates incubated at 37° C. in a shaker at 75 rpm for 24 or 48 h. After biofilm growth phase microscopic examination of the cultures were performed to rule out contamination. Then, the suspending medium was aspirated and biofilms were washed with 100 μl PBS to remove the nonadherent cells. The stock solutions were diluted twofold with RPMI 1640 supplemented with 2% glucose to obtain SM21 concentration from 100 to 0.2 μg/ml drug concentrations. In parallel, other antifungal agents such as caspofungin (100 to 0.1 μg/ml) and amphotericin B (240 μg/ml to 0.225 μg/ml) was also prepared as describe above. A total of 100 μl of drug solution was added to the microtiter plate containing Candida biofilms. Biofilms were then incubated at 37° C. for 24 h with the antifungals and afterwards metabolic activity of fungal cells was determined by the XTT [2,3-bis(2-methoxy-4-nitro-5-sulfophenyl)-2H-tetrazolium-5-carboxanilide sodium salt] assay (17, 28). Candida biofilm MIC90 was defined as the lowest drug concentration with 90% reduction in opacity compared with the drug free control. Each experiment was repeated three times with four replicates.

[2] = tested on: C. albicans, C. glabrata, C. krusei, C. tropicalis, C. parapsilosis, C. neoformans, Aspergillus fumigates and Penicillium marneffei; assay: Antifungal activity against wide range of fungal species (summary); assay type: cell-based; details: range over fungal species
Experimental: as §2

C. glabrata biofilms = assay: Mono species Candida biofilm MIC, XTT assay; assay type: cell-based; details: 48 h C. glabrata biofilms
Experimental: as §3

C. krusei biofilms = assay: Mono species Candida biofilm MIC, XTT assay; assay type: cell-based; details: 48 h C. krusei biofilms
Experimental: as §3

## CN(C)c1ccc(/C=C/c2cc(C(C)(C)C)[o+]c(C(C)(C)C)c2)cc1.[O-][Cl+3]([O-])([O-])[O-] [SM21]
C. albicans; 20 C. albicans strains isolated from HIV/AIDS patients
  Antifungal activity against clinical isolates: active against all isolates
C. albicans; C. albicans ATCC 90028
  Susceptibility (MIC90): 0.2 mg/L
C. albicans; C. albicans CL1
  Susceptibility (MIC90): 0.2 mg/L
C. albicans; C. albicans CL2
  Susceptibility (MIC90): 0.2 mg/L
C. albicans; C. albicans CL3
  Susceptibility (MIC90): 1.6 mg/L
C. albicans; C. albicans CL4
  Susceptibility (MIC90): 0.8 mg/L
C. albicans; C. albicans CL5
  Susceptibility (MIC90): 1.6 mg/L
C. albicans; C. albicans CL6
  Susceptibility (MIC90): 1.6 mg/L
C. albicans; C. albicans CL7
  Susceptibility (MIC90): 0.8 mg/L
C. albicans; C. albicans CL8
  Susceptibility (MIC90): 0.8 mg/L
C. albicans; C. albicans CL9
  Susceptibility (MIC90): 1.6 mg/L
C. albicans; C. albicans CL10
  Susceptibility (MIC90): 1.6 mg/L
C. albicans; C. albicans SC5314
  Susceptibility (MIC90): 0.2 mg/L
C. neoformans
  Susceptibility (MIC90): 0.4 mg/L
Penicillium marneffei
  Susceptibility (MIC90): 0.2 mg/L
Aspergillus fumigatus
  Susceptibility (MIC90): 6.25 mg/L
[1]
  MIC: 0.5 mg/L
C. albicans biofilms; 24 h C. albicans biofilms, 24 h drug exposure, XTT
  Biofilm MIC90: 3.2 mg/L
C. albicans biofilms; 48 h C. albicans biofilms
  Minimum inhibitory concentration of 48 h Candida biofilms: 25 mg/L
[2]
  Concentration with antifungal activity against wide range of fungal species: 0.2 to 6.25 µg/mL
C. glabrata biofilms
  Minimum inhibitory concentration of 48 h Candida biofilms: 25 mg/L
C. krusei biofilms
  Minimum inhibitory concentration of 48 h Candida biofilms: 25 mg/L
